# Reference: ChEMBL document CHEMBL1124151, “21-[18F]fluoro-16 alpha-ethyl-19-norprogesterone: synthesis and target tissue selective uptake of a progestin receptor based radiotracer for positron emission tomography” (J Med Chem, 1988)
# Tests used:
# Rattus norvegicus [1] = assay: Distribution in fat of iestrogen-primed immature rats after 1 hour iv administration; details: in vivo
# Rattus norvegicus [2] = assay: Distribution in uterus of in estrogen-primed immature rats after 3 hour iv administration; details: in vivo
# Rattus norvegicus [3] = assay: Distribution in fat of iestrogen-primed immature rats after 1 hour iv administration (13 microCi); details: in vivo
# Rattus norvegicus [4] = assay: Distribution in liver of estrogen-primed immature rats after 1 hour iv administration (13 microCi); details: in vivo
# Rattus norvegicus [5] = assay: Distribution in lungs of estrogen-primed immature rats after 1 hour iv administration (13 microCi); details: in vivo
# Rattus norvegicus [6] = assay: Distribution in brain of estrogen-primed immature rats after 1 hour iv administration (13 microCi); details: in vivo
# Rattus norvegicus [7] = assay: Distribution in fat of estrogen-primed immature rats after 3 hour iv administration (120 micro Ci); details: in vivo
# Rattus norvegicus [8] = assay: Distribution in blood of estrogen-primed immature rats after 1 hour iv administration (13 microCi); details: in vivo
# Rattus norvegicus [9] = assay: Distribution in bone of iestrogen-primed immature rats after 1 hour iv administration (13 microCi); details: in vivo
# Rattus norvegicus [10] = assay: Distribution in liver of estrogen-primed immature rats after 1 hour iv administration (120 microCi); details: in vivo
# Rattus norvegicus [11] = assay: Distribution in lungs of estrogen-primed immature rats after 1 hour iv administration (120 microCi); details: in vivo
# Rattus norvegicus [12] = assay: Distribution in brain of estrogen-primed immature rats after 1 hour iv administration (120 microCi); details: in vivo
# Rattus norvegicus [13] = assay: Distribution in kidney of estrogen-primed immature rats after 1 hour iv administration (13 microCi); details: in vivo
# Rattus norvegicus [14] = assay: Distribution in blood of estrogen-primed immature rats after 1 hour iv administration (120 microCi); details: in vivo
# Rattus norvegicus [15] = assay: Distribution in bone of estrogen-primed immature rats after 3 hour iv administration (120 micro Ci); details: in vivo
# Rattus norvegicus [16] = assay: Distribution in bone of iestrogen-primed immature rats after 1 hour iv administration (120 microCi); details: in vivo
# Rattus norvegicus [17] = assay: Distribution in liver of estrogen-primed immature rats after 3 hour iv administration (120 micro Ci); details: in vivo
# Rattus norvegicus [18] = assay: Distribution in lungs of estrogen-primed immature rats after 3 hour iv administration (120 micro Ci); details: in vivo
# Rattus norvegicus [19] = assay: Distribution in muscle of iestrogen-primed immature rats after 1 hour iv administration (13 microCi); details: in vivo
# Rattus norvegicus [20] = assay: Distribution in brain of estrogen-primed immature rats after 3 hour iv administration (120 micro Ci); details: in vivo
# Rattus norvegicus [21] = assay: Distribution in kidney of estrogen-primed immature rats after 1 hour iv administration (120 microCi); details: in vivo
# Rattus norvegicus [22] = assay: Distribution in ovaries of estrogen-primed immature rats after 1 hour iv administration (13 microCi); details: in vivo
# Rattus norvegicus [23] = assay: Distribution in uterus of estrogen-primed immature rats after 1 hour iv administration (120 microCi); details: in vivo
# Rattus norvegicus [24] = assay: Distribution in blood of estrogen-primed immature rats after 3 hour iv administration (120 micro Ci); details: in vivo
# Rattus norvegicus [25] = assay: Distribution in kidney of estrogen-primed immature rats after 3 hour iv administration (120 micro Ci); details: in vivo
# Rattus norvegicus [26] = assay: Distribution in muscle of iestrogen-primed immature rats after 1 hour iv administration (120 microCi); details: in vivo
# Rattus norvegicus [27] = assay: Distribution in ovaries of estrogen-primed immature rats after 1 hour iv administration (120 microCi); details: in vivo
# Rattus norvegicus [28] = assay: Distribution in muscle of iestrogen-primed immature rats after 3 hour iv administration (120 micro Ci); details: in vivo
# Rattus norvegicus [29] = assay: Distribution in ovaries of estrogen-primed immature rats after 3 hour iv administration (120 micro Ci); details: in vivo
# Rattus norvegicus [30] = assay: Distribution in uterus of in estrogen-primed immature rats after 1 hour iv administration (13 microCi); details: in vivo
# Rattus norvegicus [31] = assay: Distribution in uterus/blood of estrogen-primed immature rats after 3 hour iv administration (120 micro Ci); details: in vivo
# Rattus norvegicus [32] = assay: Distribution in uterus/blood of in estrogen-primed immature rats after 1 hour iv administration (13 microCi); details: other tissue
# Rattus norvegicus [33] = assay: Distribution in uterus/muscle of estrogen-primed immature rats after 3 hour iv administration (120 micro Ci); details: in vivo
# Rattus norvegicus [34] = assay: Distribution in fat of iestrogen-primed immature blocked rats after 1 hour iv administration (~/= 17 microg); details: in vivo
# Rattus norvegicus [35] = assay: Distribution in liver of estrogen-primed immature blocked rats after 1 hour iv administration (~/= 17 microg); details: in vivo
# Rattus norvegicus [36] = assay: Distribution in lungs of estrogen-primed immature blocked rats after 1 hour iv administration (~/= 17 microg); details: in vivo
# Rattus norvegicus [37] = assay: Distribution in uterus/muscle of in estrogen-primed immature rats after 1 hour iv administration (13 microCi); details: in vivo
# Rattus norvegicus [38] = assay: Distribution in blood of estrogen-primed immature blocked rats after 1 hour iv administration (~/= 17 microg); details: in vivo
# Rattus norvegicus [39] = assay: Distribution in uterus/blood of in estrogen-primed immature rats after 1 hour iv administration (120 microCi); details: other tissue
# Rattus norvegicus [40] = assay: Distribution in bone of iestrogen-primed immature blocked rats after 1 hour iv administration (~/= 17 microg); details: in vivo
# Rattus norvegicus [41] = assay: Distribution in brain of estrogen-primed immature blocked rats after 1 hour iv administration (~/= 17 microg); details: in vivo
# Rattus norvegicus [42] = assay: Distribution in kidney of estrogen-primed immature blocked rats after 1 hour iv administration (~/= 17 microg); details: in vivo
# Rattus norvegicus [43] = assay: Distribution in uterus of estrogen-primed immature blocked rats after 1 hour iv administration (~/= 17 microg); details: in vivo
# Rattus norvegicus [44] = assay: Distribution in uterus/muscle of in estrogen-primed immature rats after 1 hour iv administration (120 microCi); details: in vivo
# Rattus norvegicus [45] = assay: Distribution in muscle of iestrogen-primed immature blocked rats after 1 hour iv administration (~/= 17 microg); details: in vivo
# Rattus norvegicus [46] = assay: Distribution in ovaries of estrogen-primed immature blocked rats after 1 hour iv administration (~/= 17 microg); details: in vivo
# Rattus norvegicus [47] = assay: Distribution in uterus/blood of estrogen-primed immature blocked rats after 1 hour iv administration (~/= 17 microg); details: other tissue
# Rattus norvegicus [48] = assay: Distribution in uterus/muscle of estrogen-primed immature blocked rats after 1 hour iv administration (~/= 17 microg); details: in vivo
smiles,measurement,setting,value
CC[C@@H]1C[C@H]2[C@@H]3CCC4=CC(=O)CC[C@@H]4[C@H]3CC[C@]2(C)[C@H]1C(=O)C[18F],Distribution,Rattus norvegicus [1],3.56%
same,Distribution,Rattus norvegicus [2],4.63%
same,Distribution,Rattus norvegicus [3],4.13%
same,Distribution,Rattus norvegicus [4],2.59%
same,Distribution,Rattus norvegicus [5],0.57%
same,Distribution,Rattus norvegicus [6],0.48%
same,Distribution,Rattus norvegicus [7],2.78%
same,Distribution,Rattus norvegicus [8],0.19%
same,Distribution,Rattus norvegicus [9],3.06%
same,Distribution,Rattus norvegicus [10],3.34%
same,Distribution,Rattus norvegicus [11],0.47%
same,Distribution,Rattus norvegicus [12],0.63%
same,Distribution,Rattus norvegicus [13],0.86%
same,Distribution,Rattus norvegicus [14],0.25%
same,Distribution,Rattus norvegicus [15],5.55%
same,Distribution,Rattus norvegicus [16],3.18%
same,Distribution,Rattus norvegicus [17],1.01%
same,Distribution,Rattus norvegicus [18],0.12%
same,Distribution,Rattus norvegicus [19],0.39%
same,Distribution,Rattus norvegicus [20],0.14%
same,Distribution,Rattus norvegicus [21],1.05%
same,Distribution,Rattus norvegicus [22],2.37%
same,Distribution,Rattus norvegicus [23],6.43%
same,Distribution,Rattus norvegicus [24],0.07%
same,Distribution,Rattus norvegicus [25],0.33%
same,Distribution,Rattus norvegicus [26],0.42%
same,Distribution,Rattus norvegicus [27],2.86%
same,Distribution,Rattus norvegicus [28],0.12%
same,Distribution,Rattus norvegicus [29],1.72%
same,Distribution,Rattus norvegicus [30],4.03%
same,uterus/blood ratio,Rattus norvegicus [31],71.2
same,Distribution,Rattus norvegicus [32],21.18%
same,Distribution,Rattus norvegicus [33],41.16%
same,Distribution,Rattus norvegicus [34],2.9%
same,Distribution,Rattus norvegicus [35],2.09%
same,Distribution,Rattus norvegicus [36],0.3%
same,Distribution,Rattus norvegicus [37],11.06%
same,Distribution,Rattus norvegicus [38],0.15%
same,Distribution,Rattus norvegicus [39],26.26%
same,Distribution,Rattus norvegicus [40],3.09%
same,Distribution,Rattus norvegicus [41],0.32%
same,Distribution,Rattus norvegicus [42],0.58%
same,Distribution,Rattus norvegicus [43],0.38%
same,Distribution,Rattus norvegicus [44],15.98%
same,Distribution,Rattus norvegicus [45],0.25%
same,Distribution,Rattus norvegicus [46],1%
same,uterus/blood ratio,Rattus norvegicus [47],2.53
same,Distribution,Rattus norvegicus [48],1.59%
